Legend:
[1] = tested on: MDCK cells; assay: MTT cytotoxicity assay; type: cell-based, canine; settings: up to 10 μM, 24 h
[2] = target: T1, human UT-B (Homo sapiens, UniProt Q13336); assay: Stopped-flow light scattering assay of erythrocyte urea transport, human erythrocytes; type: cell-based; settings: urea influx, 100 mM inwardly directed urea gradient
T1 construct: endogenous in cells; host or cells: erythrocytes in human venous whole blood
T1 sequence (Q13336 1-389): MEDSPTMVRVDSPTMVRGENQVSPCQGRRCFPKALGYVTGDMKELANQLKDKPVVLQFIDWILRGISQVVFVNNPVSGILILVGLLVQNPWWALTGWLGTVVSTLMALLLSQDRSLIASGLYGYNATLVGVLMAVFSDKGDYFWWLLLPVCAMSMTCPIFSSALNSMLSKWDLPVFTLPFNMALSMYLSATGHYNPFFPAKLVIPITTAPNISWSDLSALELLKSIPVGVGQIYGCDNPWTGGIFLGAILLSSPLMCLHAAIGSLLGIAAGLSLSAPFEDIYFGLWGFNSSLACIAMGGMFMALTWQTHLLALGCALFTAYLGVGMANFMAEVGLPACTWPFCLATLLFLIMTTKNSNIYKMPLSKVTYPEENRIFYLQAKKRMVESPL
Description: Erythrocyte urea and water permeabilities were measured by stopped-flow light scattering using a Hi-Tech Sf-51 instrument (Wiltshire, UK). For measurement of urea permeability, dilutions of whole blood (mouse or human) in PBS (hematocrit ˜0.5%) were incubated with test compounds for 5 min and then subjected to a 100-mM inwardly directed urea gradient. After an initial osmotic shrinking phase, the kinetics of increasing cell volume caused by urea influx was measured as the time-course of 90° scattered light intensity at 530 nm, with increasing cell volume producing reduced scattered light intensity. Urea permeability and percentage inhibition were computed as described (see, e.g., Levin et al., FASEB J. supra, 2007)). In some experiments, different urea gradients (25-200 mM) were used, or inhibitor was added only to the erythrocyte-containing or urea-containing solutions. […] Osmotic water permeability was measured using a 100 mM gradient of sucrose.
UT-B inhibition potency was assayed quantitatively by stopped-flow light scattering from the kinetics of urea influx in response to an inwardly directed urea gradient (see Materials and Methods above). […]
Measurements were done using a Hi-Tech Sf-51 instrument (Wiltshire, UK). […] The kinetics of increasing cell volume caused by urea influx was measured as the time-course of 90° scattered light intensity at 530 nm. […]

[3] = In vitro metabolic stability in hepatic microsomes; type: in vitro ADME, rat
Description: Compounds, each at 5 μM, were incubated for specified times at 37° C. with rat liver microsomes (1 mg protein/ml; Sigma-Aldrich, St. Louis, Mo.) in potassium phosphate buffer (100 mM) containing 1 mM NADPH. The mixture was then chilled on ice, and 0.5 ml of ice-cold ethyl acetate was added.

[4] = target: T2, CFTR (Homo sapiens, UniProt P13569); assay: CFTR chloride conductance by short-circuit current; type: cell-based; settings: 10 μM, forskolin-activated
T2 construct: expressed in transfected cells

[5] = LC/MS analysis of compound in mouse kidney, blood and urine
Description: In some studies, mice were placed on low, normal or […] diets (4%, 20% or 40% casein, Harlan Labs.) for 1 week prior study of dDAVP effects. […] Urea concentration was determined by a colorimetric enzymatic assay as described above. Measurements were also done in the absence of dDAVP in which urine was collected during free access to food and water.
Kidneys were weighed, mixed with acetic acid (100 μL per 1 g tissue) and ethyl acetate (10 mL per 1 g tissue), and homogenized.

[6] = target: T3, AQP1 (Mus musculus, UniProt Q02013); assay: Erythrocyte osmotic water permeability by stopped-flow light scattering, wild type erythrocytes; type: cell-based; settings: 100 mM sucrose gradient, 10 °C
T3 construct: endogenous in cells; host or cells: erythrocytes of wild-type CD1 mice
T3 sequence (Q02013 1-269): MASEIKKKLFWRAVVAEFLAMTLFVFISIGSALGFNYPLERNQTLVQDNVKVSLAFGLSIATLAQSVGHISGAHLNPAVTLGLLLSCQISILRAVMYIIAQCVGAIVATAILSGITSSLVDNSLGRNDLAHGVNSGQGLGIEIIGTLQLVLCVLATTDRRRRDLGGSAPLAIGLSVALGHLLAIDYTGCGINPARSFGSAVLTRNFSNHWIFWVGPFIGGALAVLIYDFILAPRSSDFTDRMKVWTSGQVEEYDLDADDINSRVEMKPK
Description: Erythrocyte urea and water permeabilities were measured by stopped-flow light scattering using a Hi-Tech Sf-51 instrument (Wiltshire, UK). […] Urea permeability and percentage inhibition were computed as described (see, e.g., Levin et al., FASEB J. supra, 2007)). In some experiments, different urea gradients (25-200 mM) were used, or inhibitor was added only to the erythrocyte-containing or urea-containing solutions. In some experiments an outwardly directed urea gradient was used in which erythrocytes were incubated for 30 min with PBS containing specified urea and mixed in the stopped-flow apparatus with PBS. In reversibility experiments, erythrocytes were incubated for 30 min with inhibitor, washed three times to remove inhibitor, and urea transport assayed. Osmotic water permeability was measured using a 100 mM gradient of sucrose.
Erythrocyte osmotic water permeability was measured by stopped-flow light scattering. […] Life Sci. 52:474-78 (2009)).

[7] = for several hours following a single intraperitoneal administration

T2 sequence (P13569 whole entry): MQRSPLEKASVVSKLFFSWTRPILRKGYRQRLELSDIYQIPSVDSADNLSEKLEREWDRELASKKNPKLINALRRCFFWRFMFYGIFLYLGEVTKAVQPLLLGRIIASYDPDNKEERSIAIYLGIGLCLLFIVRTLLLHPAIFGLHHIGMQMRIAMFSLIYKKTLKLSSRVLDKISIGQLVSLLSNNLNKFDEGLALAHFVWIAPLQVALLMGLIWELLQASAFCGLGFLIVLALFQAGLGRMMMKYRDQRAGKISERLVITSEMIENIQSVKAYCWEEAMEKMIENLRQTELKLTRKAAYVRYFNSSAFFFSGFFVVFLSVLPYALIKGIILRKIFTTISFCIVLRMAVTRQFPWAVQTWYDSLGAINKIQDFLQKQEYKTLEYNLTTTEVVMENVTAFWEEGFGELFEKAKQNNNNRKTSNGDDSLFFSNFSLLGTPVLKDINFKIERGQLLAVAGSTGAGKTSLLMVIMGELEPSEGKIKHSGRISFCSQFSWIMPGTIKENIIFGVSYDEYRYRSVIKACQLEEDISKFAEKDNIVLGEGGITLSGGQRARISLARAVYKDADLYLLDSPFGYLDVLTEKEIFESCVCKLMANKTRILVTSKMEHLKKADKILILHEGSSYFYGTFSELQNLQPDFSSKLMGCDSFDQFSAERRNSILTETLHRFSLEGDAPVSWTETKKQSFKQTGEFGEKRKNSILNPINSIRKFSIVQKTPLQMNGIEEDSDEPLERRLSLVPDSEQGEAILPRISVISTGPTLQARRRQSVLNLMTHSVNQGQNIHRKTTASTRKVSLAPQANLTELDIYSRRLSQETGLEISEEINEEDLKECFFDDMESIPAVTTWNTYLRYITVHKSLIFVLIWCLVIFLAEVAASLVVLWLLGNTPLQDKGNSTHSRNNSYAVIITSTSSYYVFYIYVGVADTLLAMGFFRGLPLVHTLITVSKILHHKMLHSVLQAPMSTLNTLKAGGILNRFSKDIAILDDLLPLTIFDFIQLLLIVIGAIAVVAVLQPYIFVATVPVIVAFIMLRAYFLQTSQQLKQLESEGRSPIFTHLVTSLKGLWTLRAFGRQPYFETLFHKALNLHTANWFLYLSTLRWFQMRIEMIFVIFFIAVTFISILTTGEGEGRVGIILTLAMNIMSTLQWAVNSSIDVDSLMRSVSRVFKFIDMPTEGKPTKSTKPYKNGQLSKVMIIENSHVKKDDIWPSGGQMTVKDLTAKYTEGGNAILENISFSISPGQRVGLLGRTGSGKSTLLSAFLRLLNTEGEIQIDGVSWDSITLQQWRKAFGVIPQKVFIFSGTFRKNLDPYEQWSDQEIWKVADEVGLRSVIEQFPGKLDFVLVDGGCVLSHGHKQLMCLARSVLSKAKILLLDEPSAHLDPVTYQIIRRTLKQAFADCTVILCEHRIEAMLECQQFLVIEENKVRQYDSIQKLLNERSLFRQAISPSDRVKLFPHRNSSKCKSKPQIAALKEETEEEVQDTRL

CCc1ccc(S(=O)(=O)c2nnn3c2nc(NCc2cccs2)c2sccc23)cc1 [UTBinh-14, [3-(4-Ethyl-benzenesulfonyl)-thieno[2,3-e][1,2,3]triazolo[1,5-a]pyrimidin-5-yl]-thiophen-2-ylmethylamine]
cytotoxicity [1]: no cytotoxicity | IC50 [2]: 10.3 nM | t1/2 for disappearance in hepatic microsomes ([3]; hepatic microsomes, NADPH): approximately 2.8 min | % Remaining ([3]; parent molecule after 30 min incubation with rat liver microsomes): <5% | inhibition of CFTR chloride conductance [4]: no significant inhibition | concentration in kidney ([5]; for at least 4 h after single intraperitoneal 300 μg): greater than 1 μM | concentration in blood [5, 7]: greater than 1 μM | concentration in urine [5, 7]: greater than 1 μM | Peak concentration in kidney ([5]; single intraperitoneal 300 μg, normalized to kidney water volume): approximately 10 μM | inhibition of water transport in erythrocytes from wild type mice [6]: no significant inhibition
